From patent US11986493B2 (University of Pittsburgh—Of the Commonwealth System of …, priority 2013, dated 2024)

Test system: subjects with pulmonary hypertension
Assay: Oxygen saturation by pulse oximeter and methemoglobin by continuous percutaneous co-oximetry
Assay type: in vivo, human
Procedure: Oxygen saturation measured by pulse oximeter and methemoglobin levels monitored by continuous percutaneous co-oximetry prior to dose administration and through 4 hours post-dose were monitored closely.

[1] = Patient 1, nitrite 45 mg inhaled, 15 min
[2] = Patient 1, nitrite 45 mg inhaled, 30 min
[3] = Patient 1, nitrite 45 mg inhaled, 45 min
[4] = Patient 1, nitrite 45 mg inhaled, 60 min
[5] = Patient 1, nitrite 90 mg inhaled, 15 min
[6] = Patient 1, nitrite 90 mg inhaled, 30 min
[7] = Patient 1, nitrite 90 mg inhaled, 45 min
[8] = Patient 1, nitrite 90 mg inhaled, 60 min
[9] = Patient 2, nitrite 45 mg inhaled, 15 min
[10] = Patient 2, nitrite 45 mg inhaled, 30 min
[11] = Patient 2, nitrite 45 mg inhaled, 45 min
[12] = Patient 2, nitrite 45 mg inhaled, 60 min
[13] = Patient 2, nitrite 90 mg inhaled, 15 min
[14] = Patient 2, nitrite 90 mg inhaled, 30 min
[15] = Patient 2, nitrite 90 mg inhaled, 45 min
[16] = Patient 2, nitrite 90 mg inhaled, 60 min
[17] = Patient 3, nitrite 45 mg inhaled, 15 min
[18] = Patient 3, nitrite 45 mg inhaled, 30 min
[19] = Patient 3, nitrite 45 mg inhaled, 45 min
[20] = Patient 3, nitrite 45 mg inhaled, 60 min
[21] = Patient 3, nitrite 90 mg inhaled, 15 min
[22] = Patient 3, nitrite 90 mg inhaled, 30 min
[23] = Patient 3, nitrite 90 mg inhaled, 45 min
[24] = Patient 3, nitrite 90 mg inhaled, 60 min
[25] = Patient 4, nitrite 45 mg inhaled, 15 min
[26] = Patient 4, nitrite 45 mg inhaled, 30 min
[27] = Patient 4, nitrite 45 mg inhaled, 45 min
[28] = Patient 4, nitrite 45 mg inhaled, 60 min
[29] = Patient 4, nitrite 90 mg inhaled, 15 min
[30] = Patient 4, nitrite 90 mg inhaled, 30 min
[31] = Patient 4, nitrite 90 mg inhaled, 45 min
[32] = Patient 4, nitrite 90 mg inhaled, 60 min
[33] = Patient 5, nitrite 45 mg inhaled, 15 min
[34] = Patient 5, nitrite 45 mg inhaled, 30 min
[35] = Patient 5, nitrite 45 mg inhaled, 45 min
[36] = Patient 5, nitrite 45 mg inhaled, 60 min
[37] = Patient 5, nitrite 90 mg inhaled, 15 min
[38] = Patient 5, nitrite 90 mg inhaled, 30 min
[39] = Patient 5, nitrite 90 mg inhaled, 45 min
[40] = Patient 5, nitrite 90 mg inhaled, 60 min

## O=NO [nitrite, sodium nitrite]
[1]
  Syst O2sat: 95
  metHgB: 1.1
[2]
  Syst O2sat: 100
  metHgB: 1.1
[3]
  Syst O2sat: 92
  metHgB: 1.3
[4]
  Syst O2sat: 92
  metHgB: 1.5
[5]
  Syst O2sat: 95
  metHgB: 1.4
[6]
  Syst O2sat: 94
  metHgB: 1.3
[7]
  Syst O2sat: 94
  metHgB: 1.2
[8]
  Syst O2sat: 94
  metHgB: 1.4
[9]
  Syst O2sat: 98
  metHgB: 1
[10]
  Syst O2sat: 99
  metHgB: 1
[11]
  Syst O2sat: 99
  metHgB: 1
[12]
  Syst O2sat: 99
  metHgB: 1
[13]
  Syst O2sat: 96
  metHgB: 1.4
[14]
  Syst O2sat: 98
  metHgB: 1.7
[15]
  Syst O2sat: 98
  metHgB: 1.7
[16]
  Syst O2sat: 100
  metHgB: 1.6
[17]
  Syst O2sat: 92
  metHgB: 1.1
[18]
  Syst O2sat: 94
  metHgB: 1.3
[19]
  Syst O2sat: 93
  metHgB: 1.5
[20]
  Syst O2sat: 94
  metHgB: 1.5
[21]
  Syst O2sat: 97
  metHgB: 1.7
[22]
  Syst O2sat: 95
  metHgB: 1.7
[23]
  Syst O2sat: 95
  metHgB: 1.6
[24]
  Syst O2sat: 95
  metHgB: 1.5
[25]
  Syst O2sat: 98
  metHgB: 1.3
[26]
  Syst O2sat: 98
  metHgB: 1.1
[27]
  Syst O2sat: 99
  metHgB: 1
[28]
  Syst O2sat: 97
  metHgB: 0.8
[29]
  Syst O2sat: 97
  metHgB: 1.7
[30]
  Syst O2sat: 97
  metHgB: 2
[31]
  Syst O2sat: 96
  metHgB: 1.2
[32]
  Syst O2sat: 96
  metHgB: 1.2
[33]
  Syst O2sat: 94
  metHgB: 1.1
[34]
  Syst O2sat: 98
  metHgB: 0.8
[35]
  Syst O2sat: 97
  metHgB: 0.7
[36]
  Syst O2sat: 94
  metHgB: 0.8
[37]
  Syst O2sat: 95
  metHgB: 0.9
[38]
  Syst O2sat: 97
  metHgB: 0.7
[39]
  Syst O2sat: 98
  metHgB: 0.7
[40]
  Syst O2sat: 97
  metHgB: 0.5
Patient 6, nitrite 45, 15 min
  Syst O2sat: 95
  metHgB: 1.1
Patient 6, nitrite 45, 30 min
  Syst O2sat: 99
  metHgB: 1.3
Patient 6, nitrite 45, 45 min
  Syst O2sat: 96
  metHgB: 1.3
Patient 6, nitrite 45, 60 min
  Syst O2sat: 96
  metHgB: 1.2
Patient 6, nitrite 90, 15 min
  Syst O2sat: 95
  metHgB: 1.9
Patient 6, nitrite 90, 30 min
  Syst O2sat: 95
  metHgB: 1.9
Patient 6, nitrite 90, 45 min
  Syst O2sat: 96
  metHgB: 1.7
Patient 6, nitrite 90, 60 min
  Syst O2sat: 95
  metHgB: 1.7
At the doses tested (45 mg and 90 mg inhaled)
  methemoglobin: does not significantly affect
